The subject of assay [1] is fecal bile acids. Put plainly: Fecal bile acid measurement, rats dosed 4 days. The assay is classed as in vivo, Wistar rat. The conditions noted are these: for Increase over Vehicle (Delta): fecal bile acids, rat, 4 days. How it is done:
Male Wistar rats (Charles River Laboratories) weighing 275-300 grams were single-housed in a constant temperature environment with alternating 12 hour light and dark cycles. All animals had continuous access to a commercial rodent diet as well as water. In each study rats were randomly assigned to either vehicle or treatment groups and were administered intragastric doses of drug dissolved in aqueous 0.2% (v/v) Tween 80 (2 ml/kg body weight). The animals were dosed in the morning between 9:00 and 10:00 a.m. for four consecutive days. Fecal samples were collected on papers underneath each cage during the final 48 hour period of the study and analyzed for bile acid content.
Cage papers containing the 48-hour fecal samples were collected at approximately 9:00 a.m. on the final day and used to determine the individual fecal bile acid (FBA) concentration for each animal. Fecal samples from each rat were weighed and a weight of distilled water (1 gram/mL) equal to 2 times the total weight of feces was added to each sample container (e.g., 20 mL water to 10 grams feces). The containers were stored overnight at 4° C. Each sample was homogenized for approximately 45 seconds using a small food processor to yield a homogeneous slurry. 1.4 grams of the homogenate was weighed into 16×100 polypropylene tubes and 2.6 mL of tertiary butanol/distilled water (2:0.6) added to yield a final concentration of 50% (v/v) tertiary butanol in water. The sample was extracted by incubation for 45 minutes in a 37° C. water bath, and subjected to centrifugation at 3000×g for 13 minutes and the supernatant extract collected.
The concentration of bile acids […] in the extract was determined using a 96-well enzymatic assay system (4,5). 20 μl aliquots of each butanol extract was added to two sets of triplicate wells in a 96-well assay plate (one set on each half of the plate). Standardized sodium taurocholate solutions (0.2 and 0.9 mM) and standardized fecal extract solutions (previously made from pooled fecal samples collected from control and drug-treated rats) were analyzed in parallel to provide a bile acid standard curve and internal quality control samples, respectively. 20 μl aliquots of the sodium taurocholate standard were serially diluted to generate a standard curve and were added to two separate sets of triplicate wells.
To each well, 230 μl of reaction mixture containing 1M hydrazine hydrate, 0.1 M pyrophosphate and 0.46 mg/ml NAD was added. […] Following a 60 minute incubation at room temperature, the optical density at 340 nm was measured and the mean of each set of triplicate wells was calculated. […] A mean value for the increase in FBA for each group was determined and compared to the vehicle group used, to determine compound dosing efficacy. […]

Assay [2] has as its system serum bile acids. Briefly: Inhibition of the postprandial rise in SBA (AUC 0-240 min) in dogs, LUM001 compared to cholestyramine. It is filed as in vivo, dog. How it is done:
LUM001 was dissolved in 0.2% Tween 80 at concentrations that required the administration of 0.2 ml dosing solution/kg of body weight at each dose tested. Cholestyramine was suspended in water at concentrations that required the administration of 2.5 ml/kg (500 mg/kg) and 1 ml/kg (200 mg/kg). The appropriate volume of solution formulation for each animal was placed into a gelatin capsule, Torpac Inc., size 13, Batch 594, East Hanover, N.J. and administered per os. Test compounds were administered as single oral doses to groups of dogs, 3 to 9 dogs per group at varying dosages. LUM001 was given at 0, 0.02, 0.05, 0.2, 0.6, 2, 5 or 15 mg/kg. Cholestyramine was administered at 200 or 500 mg/kg. […] No dog received any one compound dosage more than once. SBA was measured by an enzymatic assay. SBA values are expressed as μg of total bile acids/ml of serum.

Structures are written as SMILES.

With `CCCCC1(CCCC)CS(=O)(=O)c2ccc(N(C)C)cc2[C@@H](c2ccc(OCc3ccc(C[N+]45CCN(CC4)CC5)cc3)cc2)[C@H]1O` [LUM001], the “Increase over Vehicle (Delta)” value in assay [1] (Q.D. 0.002 mg/kg/day) was 4.1; in assay [1] (Q.D. 0.008 mg/kg/day), 5.9; in assay [1] (Q.D. 0.4 mg/kg/day), 47.0. The “effect on fecal bile acids” value in assay [1] (rats, all doses) is reported as “significantly increased”. For the same compound, in assay [2] (cholestyramine 200 or 500 mg/kg, AUC 0-240 min), the “inhibition of postprandial serum bile acids AUC compared to cholestyramine” value is listed as “superior inhibition”. The “effect on serum bile acids” value in assay [2] (single oral doses 0.02-15 mg/kg) is listed as “significantly decreased”.

The record behind these values is patent US20140275090A1, “BILE ACID RECYCLING INHIBITORS FOR TREATMENT OF PRIMARY SCLEROSING CHOLANGITIS AND INFLAMMATORY BOWEL DISEASE” (Lumena Pharmaceuticals, Inc., priority 2013, published 2014).
